Assay results as given in patent US10449162B2, “Delivery of drug nanoparticles and methods of use thereof” (DFB Soria, LLC, priority 2015, dated 2019).
Like-named read-outs stand apart in the source and are kept apart here. Blank lines part the entries; values can stand above or below the compound they belong to.

Legend:
[1] = methanol/water 15/85 (v/v), 37° C., pH 7, USP Apparatus II 75 rpm, PCT/US16/35993, cited from earlier work
[2] = Particle size of paclitaxel nanoparticles lots (ACCUSIZER 780); format: physicochemical; conditions: number-weighted differential distribution; nanoparticle API lot
Experimental: Max. Concentration: 9000 particles/mL, No. containers: 1, Sensor Range: Summation, Lower Detection Limit: 0.5 μm, Flow Rate: 30 mL/min, No. Analysis pulls: 4, Time between pulls: 1 sec, Pull volume: 10 mL, Tare Volume: 1 mL, Prime volume: 1 mL, Include First Pull: Not Selected.
Vortexed for 5-10 minutes and sonicated in a water batch for 1 minute.
Filled a plastic bottle with filtered (0.22 μm) 0.1% w/w SDS solution and analyzed the Background.

[3] = Specific surface area (BET isotherm); format: physicochemical; conditions: lots used in the formulas
Experimental: (§1) As used herein, the “specific surface area (SSA)” is the total surface area of the taxane nanoparticle per unit of taxane mass as measured by the Brunauer-Emmett-Teller (“BET”) isotherm by the following method: a known mass between 200 and 300 mg of the analyte is added to a 30 mL sample tube. […] The automated test is then carried out using the BETWIN® software package and the surface area of each sample is subsequently calculated. The bulk density measurement can be conducted by pouring the taxane nanoparticles into a graduated cylinder without tapping at room temperature, measuring the mass and volume, and calculating the bulk density.

[4] = Bulk density (not tapped); format: physicochemical; conditions: lots used in the formulas
Experimental: as §1

[5] = Observation of paclitaxel nanoparticle crystals in various substances and solutions (light microscopy); format: physicochemical
[6] = Solubility of paclitaxel in various solvents (HPLC); format: physicochemical
Experimental: For each solvent, about 2 g of the solvent was weighed into a clear glass vial.
Each vial was mixed with a stir bar on a magnetic stirrer for 2 hours at room temperature.
Each vial was then checked every 1-2 hours to see if the solution became clear.

skin inflammation models = conditions: topical treatment; nonclinical evaluations; cited from earlier work
[7] = in Aluminum sulfate 0.1-0.2% in water, 7 days, RT
[8] = in Ammonium lauryl sulfate 2% in water, 3 days, RT
[9] = in Benzalkonium chloride (50%) 2% in water, 7 days & 21 days, RT
[10] = in CARBOPOL ULTREZ 10 (with Ammonium hydroxide as neutralizer) 0.5% in water, 8 days & 21 days, RT
[11] = in Castor Oil 100%, 24 hrs & 9 days, RT
[12] = in Dimethicone, 1000 cSt 100%, 24 hrs & 6 days, RT
[13] = in FOMBLIN HC04 100%, 4, 7 & 13 days, RT
[14] = in Hydroxyethyl cellulose 1% in water, 7 days, RT
[15] = in Hydroxypropyl methylcellulose 1% in water, 3 days, RT
[16] = in Lecithin 1% in water, 24 hrs, RT
[17] = in Light Mineral Oil NF 100%, 3 days, RT & 40 C.
[18] = in Magnesium nitrate 5% in water, 3 days, RT
[19] = in Mannitol 5% in water, 7 days, RT
[20] = in Mineral Oil USP (heavy) 100%, 3 days, RT & 40 C
[21] = in PEG 400 10% in water, 22 days, RT & 60 C.
[22] = in Poloxamer 188 2% in water, 7 days, RT
[23] = in Poloxamer 407 2% in water, 5 & 7 days, RT
[24] = in Polyoxyl 40 Hydrogenated Castor Oil (KOLLIPHOR RH40) 1% in water, 6 days, RT
[25] = in Polysorbate 80 0.5% in Saline, 7 days, RT & 60 C.
[26] = in Polysorbate 80 0.5% in water, 22 days, RT & 60 C.
[27] = in Povidone 1% in water, 7 days & 21 days, RT
[28] = in Proline 3% in water, 7 days, RT
[29] = in Purified Water 100%, 5 days, RT & 60 C.
[30] = in ST-Cyclomethicone 5 NF 100%, 24 hrs & 13 days, RT
[31] = in Saline 0.9% NaCl in water, 7 days, RT & 60 C.
[32] = in Sodium lauryl sulfate 2% in water, 7 days, RT
[33] = in Sodium phosphate monobasic 0.75% in water, 7 days, RT
[34] = in Sorbitol 5% in water, 7 days, RT
[35] = in Vitamin E TPGS 0.5% in water, 6 days, RT
[36] = in Zinc acetate […] in water, 7 days, RT

Compound: CC(=O)O[C@@]12CO[C@@H]1C[C@H](O)[C@@]1(C)C(=O)[C@H](O)C3=C(C)[C@@H](OC(=O)[C@H](O)[C@@H](NC(=O)OC(C)(C)C)c4ccccc4)C[C@@](O)([C@@H](OC(=O)c4ccccc4)[C@H]21)C3(C)C [docetaxel nanoparticles, docetaxel]
Dissolution rate, % dissolved in 30 minutes [1]: 27%

Particle size, Mean [2]: 0.861 μm
Particle size, Median [2]: 0.710 μm
Particle size, Mode [2]: 0.572 μm
Specific surface area (SSA) [3]: 41.24 m^2/g
Bulk density (not-tapped) [4]: 0.05 g/mL
Compound: CC(=O)O[C@H]1C(=O)[C@@]2(C)[C@H]([C@H](OC(=O)c3ccccc3)[C@]3(O)C[C@H](OC(=O)[C@H](O)[C@@H](NC(=O)c4ccccc4)c4ccccc4)C(C)=C1C3(C)C)[C@]1(OC(C)=O)CO[C@@H]1C[C@@H]2O [Paclitaxel nanoparticles lot used in formulas listed in Tabl] [listing 1 of 2 here]

Compound: CC(=O)O[C@@]12CO[C@@H]1C[C@H](O)[C@@]1(C)C(=O)[C@H](O)C3=C(C)[C@@H](OC(=O)[C@H](O)[C@@H](NC(=O)OC(C)(C)C)c4ccccc4)C[C@@](O)([C@@H](OC(=O)c4ccccc4)[C@H]21)C3(C)C [docetaxel nanoparticles produced by milling] [reference compound]
Dissolution rate, % dissolved in 30 minutes ([1]; listed as docetaxel nanoparticles made by milling): 9%

Crystal size (light microscopy) [5, 7]: > 5 μm
Needle shaped crystals observed? (visual observation by light microscopy) [5, 7]: Yes
Crystal size (light microscopy) [5, 8]: > 5 μm
Needle shaped crystals observed? (visual observation by light microscopy) [5, 8]: Yes
Crystal size (light microscopy) [5, 9]: < 5 μm
Needle shaped crystals observed? (visual observation by light microscopy) [5, 9]: No
Crystal size (light microscopy) [5, 10]: < 5 μm
Needle shaped crystals observed? (visual observation by light microscopy) [5, 10]: No
Crystal size (light microscopy) [5, 11]: < 5 μm
Needle shaped crystals observed? (visual observation by light microscopy) [5, 11]: No
Crystal size (light microscopy) [5, 12]: < 5 μm
Needle shaped crystals observed? (visual observation by light microscopy) [5, 12]: No
Crystal size (light microscopy) [5, 13]: < 5 μm
Needle shaped crystals observed? (visual observation by light microscopy) [5, 13]: No
Crystal size (light microscopy) [5, 14]: > 5 μm
Needle shaped crystals observed? (visual observation by light microscopy) [5, 14]: Yes
Crystal size (light microscopy) [5, 15]: > 5 μm
Needle shaped crystals observed? (visual observation by light microscopy) [5, 15]: Yes
Crystal size (light microscopy) [5, 16]: > 10 μm
Needle shaped crystals observed? (visual observation by light microscopy) [5, 16]: Yes
Crystal size (light microscopy) [5, 17]: < 5 μm
Needle shaped crystals observed? (visual observation by light microscopy) [5, 17]: No
Crystal size (light microscopy) [5, 18]: > 5 μm
Needle shaped crystals observed? (visual observation by light microscopy) [5, 18]: Yes
Crystal size (light microscopy) [5, 19]: > 5 μm
Needle shaped crystals observed? (visual observation by light microscopy) [5, 19]: Yes
Crystal size (light microscopy) [5, 20]: < 5 μm
Needle shaped crystals observed? (visual observation by light microscopy) [5, 20]: No
Crystal size (light microscopy) [5, 21]: > 5 μm
Needle shaped crystals observed? (visual observation by light microscopy) [5, 21]: Yes
Crystal size (light microscopy) [5, 22]: > 5 μm
Needle shaped crystals observed? (visual observation by light microscopy) [5, 22]: Yes
Crystal size (light microscopy) [5, 23]: < 5 μm
Needle shaped crystals observed? (visual observation by light microscopy) [5, 23]: No
Crystal size (light microscopy) [5, 24]: < 5 μm
Needle shaped crystals observed? (visual observation by light microscopy) [5, 24]: Yes
Crystal size (light microscopy) [5, 25]: > 5 μm
Needle shaped crystals observed? (visual observation by light microscopy) [5, 25]: Yes
Crystal size (light microscopy) [5, 26]: < 5 μm
Needle shaped crystals observed? (visual observation by light microscopy) [5, 26]: Yes
Crystal size (light microscopy) [5, 27]: < 5 μm
Needle shaped crystals observed? (visual observation by light microscopy) [5, 27]: Yes
Crystal size (light microscopy) [5, 28]: > 5 μm
Needle shaped crystals observed? (visual observation by light microscopy) [5, 28]: Yes
Crystal size (light microscopy) [5, 29]: > 5 μm
Needle shaped crystals observed? (visual observation by light microscopy) [5, 29]: Yes
Crystal size (light microscopy) [5, 30]: < 5 μm
Needle shaped crystals observed? (visual observation by light microscopy) [5, 30]: No
Crystal size (light microscopy) [5, 31]: > 10 μm
Needle shaped crystals observed? (visual observation by light microscopy) [5, 31]: Yes
Crystal size (light microscopy) [5, 32]: > 5 μm
Needle shaped crystals observed? (visual observation by light microscopy) [5, 32]: Yes
Crystal size (light microscopy) [5, 33]: > 5 μm
Needle shaped crystals observed? (visual observation by light microscopy) [5, 33]: Yes
Crystal size (light microscopy) [5, 34]: > 5 μm
Needle shaped crystals observed? (visual observation by light microscopy) [5, 34]: Yes
Crystal size (light microscopy) [5, 35]: < 5 μm
Needle shaped crystals observed? (visual observation by light microscopy) [5, 35]: Yes
Crystal size (light microscopy) [5, 36]: > 5 μm
Needle shaped crystals observed? (visual observation by light microscopy) [5, 36]: Yes
Crystal growth ([5]; in any of the hydrophobic carriers): did not grow
Crystal growth ([5]; in aqueous solutions of benzalkonium chloride, CARBOPOL ULTREZ 10, or poloxamer 407): did not grow
Compound: CC(=O)O[C@H]1C(=O)[C@@]2(C)[C@H]([C@H](OC(=O)c3ccccc3)[C@]3(O)C[C@H](OC(=O)[C@H](O)[C@@H](NC(=O)c4ccccc4)c4ccccc4)C(C)=C1C3(C)C)[C@]1(OC(C)=O)CO[C@@H]1C[C@@H]2O [Paclitaxel nanoparticles, paclitaxel]

Paclitaxel Solubility at RT ([6]; in Benzyl Alcohol, NF): 17.02% w/w
Paclitaxel Solubility at RT ([6]; in Diethylene Glycol Monoethyl Ether, NF (TRANSCUTOL P)): 33.10% w/w
Paclitaxel Solubility at RT ([6]; in Diisopropyl Adipate (CERAPHYL 230)): 3.51% w/w
Paclitaxel Solubility at RT ([6]; in Dimethyl Isosorbide): 38.22% w/w
Paclitaxel Solubility at RT ([6]; in Hexylene Glycol): 4.07% w/w
Paclitaxel Solubility at RT ([6]; in Isopropyl Myristate, NF): 0.048% w/w
Paclitaxel Solubility at RT ([6]; in Medium Chain Triglycerides, NF): 0.32% w/w
Paclitaxel Solubility at RT ([6]; in Mineral Oil, USP (heavy)): 0.3 ppm
Paclitaxel Solubility at RT ([6]; in Polyethylene Glycol 400, NF): 22.30% w/w
Paclitaxel Solubility at RT ([6]; in Propylene Carbonate): 4.74% w/w
Paclitaxel Solubility at RT ([6]; in Propylene Glycol, USP): 0.88% w/w
Paclitaxel Solubility at RT ([6]; in Purified Water, USP): <0.05 ppm
Paclitaxel Solubility at RT ([6]; in Purified Water, USP, listed as paclitaxel): less than 0.05 ppm
Paclitaxel Solubility at RT ([6]; in Super Refined Oleic Acid, NF): 0.041% w/w
Paclitaxel Solubility at RT ([6]; in Super Refined Oleyl Alcohol, NF): 0.38% w/w
Compound: CC(=O)O[C@H]1C(=O)[C@@]2(C)[C@H]([C@H](OC(=O)c3ccccc3)[C@]3(O)C[C@H](OC(=O)[C@H](O)[C@@H](NC(=O)c4ccccc4)c4ccccc4)C(C)=C1C3(C)C)[C@]1(OC(C)=O)CO[C@@H]1C[C@@H]2O [Paclitaxel, paclitaxel]
Effect in skin inflammation models (skin inflammation models): reduced inflammation, swelling, and erythema

Particle size, Mean [2]: 0.83 μm
Specific surface area (SSA) [3]: 26.72 m^2/g
Bulk density (not-tapped) [4]: 0.09 g/mL
Compound: CC(=O)O[C@H]1C(=O)[C@@]2(C)[C@H]([C@H](OC(=O)c3ccccc3)[C@]3(O)C[C@H](OC(=O)[C@H](O)[C@@H](NC(=O)c4ccccc4)c4ccccc4)C(C)=C1C3(C)C)[C@]1(OC(C)=O)CO[C@@H]1C[C@@H]2O [Paclitaxel nanoparticles lot used in formulas listed in Tabl] [listing 2 of 2 here]
